Experimental data reported in patent publication US20110172097A1, “Imidazole and Triazole Compounds, Their Use and Agents Containing The Same” (BASF SE, priority 2008, published 2011).

Key:
Septoria tritici = assay: CG1 - Protective activity against Septoria leaf spot of wheat caused by Septoria tritici (greenhouse); format: in vivo, Septoria tritici on wheat seedlings; conditions: protective spray 24 h before inoculation, assessed after 21 days, % infection of total leaf area, untreated control 90
Method: Subsequently, it was made up to 100 ml with water. This stock solution was diluted with the described solvent/emulsifier/water mixture to the active compound concentration indicated below. Alternatively, the active compounds were used as a commercially available ready-to-use solution and diluted with water to the active compound concentration indicated. CG1 Protective Activity Against Septoria Leaf Spot of Wheat Caused by Septoria tritici Leaves of potted wheat seedlings were sprayed to run off point with an aqueous suspension having the active compound concentration stated below. 24 hours after the spray coating had dried on, they were inoculated with an aqueous spore suspension of Septoria tritici. The test plants were then placed in a greenhouse at temperatures between 18 and 22° C. and a relative atmospheric humidity close to 100% for 4 days and then at temperatures between 18 and 22° C. and an atmospheric humidity of about 70%. After 21 days, the extent of the development of the disease was determined visually in % infection of the total leaf area.

Pyricularia oryzae = format: cell-based; conditions: day 7, 405 nm, active compound-free control = 100%
Phakopsora pachyrhizi = assay: Example G1 - Curative activity against soybean rust caused by Phakopsora pachyrhizi (greenhouse); format: in vivo, Phakopsora pachyrhizi on soybean seedlings; conditions: 300 ppm, curative spray 24 h after inoculation, assessed after 14 days, untreated plants 90% infected

SMILES	Infection (%) at 600 ppm CG1 (Septoria tritici)	Growth (%) at 31 ppm CM1 (Pyricularia oryzae)	further results
CC(C)(C)C(O)C(CCCCc1ccc(Cl)cc1)n1cncn1 (centres unmarked) [reference compound]	40%	–	–
CC(C)(C)C(O)C(CCCCc1ccc(F)cc1)n1cncn1 (centres unmarked) [I.A5a, 8-(4-fluorophenyl)-2,2-dimethyl-4-[1,2,4]triazol-1-yloctan-3-ol]	10%	–	–
CC(C)(CCCC(C(O)C(C)(C)C)n1cncn1)c1ccccc1 (centres unmarked) [I.A1a, 2,2,8-trimethyl-8-phenyl-4-[1,2,4]triazol-1-ylnonan-3-ol]	–	26%	–
CC(C)(C)C(O)C(CCCCc1ccccc1)n1cncn1 (centres unmarked) [reference compound]	–	61%	–
CC(C)(CCCC(C(O)C(C)(C)C)n1cncn1)c1ccccc1 (centres unmarked) [I.A1b, 2,2,8-trimethyl-8-phenyl-4-[1,2,4]triazol-1-ylnonan-3-ol]	–	–	extent of the rust fungus development on the leaves in % infection (Phakopsora pachyrhizi): 0%
